Measured values taken from US10112899B2 (ViiV HEALTHCARE UK LIMITED, priority 2014, dated 2018).

Tested on: HIV in the HTLV-1 transformed cell line MT-4
Experiment: organism not typed
Assay type: cell-based
Conditions: MT4, 96 h, MT-4 cells; luciferase/cell titer glo readout after 96 hours; 10 point dose response

Compound	IC50 [nM]
Cc1ccc(-c2c(C)c3c(c(C)c2[C@H](OC(C)(C)C)C(=O)O)CN(C(=O)N2CCC[C@H]2C)C3)cc1 [Example 292, (S)-2-(tert-butoxy)-2-(4,7-dimethyl-2-((R)-2-methylpyrrolidine-1-carbonyl)-6-(p-tolyl)isoindolin-5-yl)acetic acid]	5
Cc1c(-c2c(C)c3c(c(C)c2[C@H](OC(C)(C)C)C(=O)O)CN(C(=O)c2cccc4c2OCO4)C3)cc(F)c2c1CCCO2 (atropisomer, axis not shown; (M)) [Example 138, (S)-2-((M)-2-(benzo[d][1,3]dioxole-4-carbonyl)-6-(8-fluoro-5-methylchroman-6-yl)-4,7-dimethylisoindolin-5-yl)-2-(tert-butoxy)acetic acid]	2
Cc1ccc(-c2c(C)c3c(c(C)c2[C@H](OC(C)(C)C)C(=O)O)CN(C(=O)c2ccc(F)cc2F)C3)cc1 [Example 247, (S)-2-(tert-butoxy)-2-(2-(2,4-difluorobenzol)-4,7-dimethyl-6-(p-tolyl)isoindolin-5-yl)acetic acid]	5
Cc1ccc(-c2c(C)c3c(c(C)c2[C@H](OC(C)(C)C)C(=O)O)CN(CC2CCCCC2)C3)cc1 [Example 30, (S)-2-(tert-butoxy)-2-(2-(cyclohexylmethyl)-4,7-dimethyl-6-(p-tolyl)isoindolin-5-yl)acetic acid]	47
Cc1c2c(c(C)c([C@H](OC(C)(C)C)C(=O)O)c1-c1ccc3c4c(ccnc14)CCO3)CN(C(=O)c1cccc(F)c1)C2 [Example 299, (2S)-2-(tert-butoxy)-2-(6-(2,3-dihydropyrano[4,3,2-de]quinolin-7-yl)-2-(3-fluorobenzoyl)-4,7-dimethylisoindolin-5-yl)acetic acid]	14
Cc1ccc(-c2c(C)c3c(c(C)c2[C@H](OC(C)(C)C)C(=O)O)CN(C(=O)NC2CCC2)C3)cc1 [Example 70, (2S)-2-(tert-butoxy)-2-[2-(cyclobutylcarbamoy)-4,7-dimethyl-6-(4-methylphenyl)-2,3-dihydro-1H-isoindol-5-yl]acetic acid]	34
Cc1ccc(-c2c(C)c3c(c(C)c2[C@H](OC(C)(C)C)C(=O)O)CN(C(=O)c2cccc4c2OCCO4)C3)cc1 [Example 105, (S)-2-(tert-butoxy)-2-(2-(2,3-dihydrobenzo[b][1,4]dioxine-5-carbonyl)-4,7-dimethyl-6-(p-tolyl)isoindolin-5-yl)acetic acid]	14
Cc1c(F)cccc1C(=O)N1Cc2c(C)c(-c3cc(F)c4c(c3C)CCCO4)c([C@H](OC(C)(C)C)C(=O)O)c(C)c2C1 (atropisomer, axis not shown; (M)) [Example 141, (S)-2-(tert-butoxy)-2-((M)-2-(3-fluoro-2-methylbenzoyl)-6-(8-fluoro-5-methylchroman-6-yl)-4,7-dimethylisoindolin-5-yl)acetic acid]	4
Cc1ccc(-c2c(C)c3c(c(C)c2[C@H](OC(C)(C)C)C(=O)O)CN(C(=O)N2CCC[C@@H]2C)C3)cc1 [Example 87, (S)-2-(tert-butoxy)-2-(4,7-dimethyl-2-((S)-2-methylpyrrolidine-1-carbonyl)-6-(p-tolyl)isoindolin-5-yl)acetic acid]	5

Same assay, conditions: MT-4 cells; luciferase/cell titer glo readout after 96 hours; 10 point dose response

Compound	IC50 [nM]
Cc1ccc(-c2c(C)c3c(c(C)c2[C@H](OC(C)(C)C)C(=O)O)CN(C(=O)N2CCCCC2)C3)c(Cl)c1 [Example 322, (2S)-2-(tert-butoxy)-2-(6-(2-chloro-4-methylphenyl)-4,7-dimethyl-2-(piperidine-1-carbonyl)isoindolin-5-yl)acetic acid]	5
Cc1c(-c2c(C)c3c(c(C)c2[C@H](OC(C)(C)C)C(=O)O)CN(C(=O)c2cccc(F)c2)C3)ccc2c1NCCO2 [Example 311, (2S)-2-(tert-butoxy)-2-(2-(3-fluorobenzoyl)-4,7-dimethyl-6-(5-methyl-3,4-dihydro-2H-benzo[b][1,4]oxazin-6-yl)isoindolin-5-yl)acetic acid]	15
